Source: patent US10016413B2, “Combination dopamine antagonist and opiate receptor antagonist treatment of addictive behavior” (University of Maryland, Baltimore, priority 2012, dated 2018)
“Also recorded” adds a separate entry of the source.

How the values were obtained:
[1] = PK of the drug-drug interaction between l-THP and cocaine in cocaine users; assay type: in vivo, human; details: cocaine users
From the text: (§1) Data on safety of l-THP in six subjects of cocaine users was generated (Table 1). The major PD/PK parameters of the drug-drug interaction between l-THP and cocaine in cocaine users were compared between active drug and placebo groups. […] Since l-THP will be 10 fold more than LDN in the combination, the safety of l-THP is the major safety concern in the combination for human drug addicts.

[2] = test system: cocaine induced reinstatement of CPP; experiment: Cocaine induced reinstatement of CPP (mouse model of CPP); assay type: in vivo; details: conditioned with 10 mg/kg cocaine, reinstated with 5 mg/kg cocaine, l-THP 3 mg/kg, naltrexone 0.1 mg/kg, alone or combined
Method: Animals were conditioned using 10 mg/kg cocaine for 4 days, and reinstated using 5 mg/kg cocaine. Reinstatement was carried out 48 hours after CPP was extinct. The CPP score is calculated as a change in baseline from the cocaine conditioned chamber. A two way ANOVA followed by Bonferroni post test comparisons was used for analysis of the effect of treatment on cocaine reinstatement.
Fixed dose l-THP/LDN (3 mg/kg/0.1 mg/kg) were tested in mouse model of CPP.

cocaine users = experiment: Safety of l-THP in cocaine users: PD (blood pressure, heart rate); assay type: in vivo, human; details: for BP (Change from baseline %), first value of the pair / BP (Change from baseline %), second value of the pair / HR (Change from baseline %): n = 3
From the text: as §1

locomotor activity = experiment: Treatment effect on locomotor activity during extinction/treatment; assay type: in vivo, mouse; details: over the treatment period; l-THP 3 mg/kg, naltrexone 0.1 mg/kg, alone or combined
Method: Over the course of extinction/treatment the animal's locomotor activity was recorded. The locomotion scores graphed represent the treatment locomotion with the baseline locomotion score subtracted.

cocaine addicted mice = experiment: Naltrexone induced withdrawal (global withdrawal score); assay type: in vivo; details: mice treated with 10 mg/kg cocaine over 4 days
Method: Animals were treated with 10 mg/kg cocaine over 4 days. On the 5th day animals were injected with different dose of Naltrexone and 3 mg/kg l-THP. After injection animals were monitored for withdrawal behaviors for 20 minutes. Total counts for jumping, teeth chattering, paw tremors and grooming with assigned points were used to calculate the global withdrawal score. A one way ANVOA followed by Bonferroni post test comparisons was used to determine the effect naltrexone dose on withdrawal (***p<0.001 and *p<0.05 respectively) n=5 for each group. Global Scores were calculated.
This effect was attributed to cocaine's up regulation of endogenous opioids and the significant blockade of opioid receptor by naltrexone.

[3] = cocaine users, first column group headed Post cocaine 0 min
[4] = cocaine users, second column group headed Post cocaine 0 min

SMILES | effect of l-THP pretreatment on the Cmax or AUC0-inf of cocaine ([1]; vs placebo pretreated) | AUC(0-inf) ([1]; human, in vivo, n = 2, mean only, analyte l-THP, read-out: I-THP AUC 0-inf) | Cmax ([1]; human, in vivo, n = 2, mean only, analyte l-THP, read-out: I-THP Cmax) | effect of treatment on cocaine reinstatement of CPP [2] | peak changes in heart rate (HR) and blood pressure (BP) (cocaine users; cocaine users) | BP (Change from baseline %), first value of the pair (cocaine users; [3]) | BP (Change from baseline %), second value of the pair (cocaine users; [3]) | HR (Change from baseline %) (cocaine users; [3]) | BP (Change from baseline %), first value of the pair (cocaine users; [4]) | BP (Change from baseline %), second value of the pair (cocaine users; [4]) | HR (Change from baseline %) (cocaine users; [4]) | safety and tolerability in cocaine users (cocaine users; six subjects of cocaine users, active drug vs placebo) | effect on locomotor activity (locomotion) (locomotor activity) | withdrawal, lower doses of naltrexone (cocaine addicted mice; naltrexone 1 mg/kg, 0.3 mg/kg and 0.1 mg/kg co-administered with l-THP (3 mg/kg)) | withdrawal symptoms, high dose naltrexone (cocaine addicted mice; naltrexone 30 mg/kg or 15 mg/kg co-administered with l-THP (3 mg/kg))
COc1cc2c(cc1OC)[C@@H]1Cc3ccc(OC)c(OC)c3CN1CC2 [l-THP, levo-tetrahydropalmatine] | does not increase | 393 ng·h/mL | 38 ng/mL | significant attenuation | within acceptable margin | 8 ± 9.3% | 10 ± 13% | 23.6 ± 27.1% | 5 ± 3% | 5 ± 2% | 8.5 ± 8.1% | safe and well tolerated | significant effect on locomotion during week 3 and week 4; also recorded: reduced locomotor activity significantly | – | –
O=C1CC[C@@]2(O)[C@H]3Cc4ccc(O)c5c4[C@@]2(CCN3CC2CC2)[C@H]1O5 [naltrexone] | – | – | – | did not have significant effect | – | – | – | – | – | – | – | – | did not display significant effect | did not produce withdrawal | withdrawal symptoms occurred
